Experimental data from patent publication US20090196930A1, “AEROSOLIZED NITRITE AND NITRIC OXIDE -DONATING COMPOUNDS AND USES THEREOF” (Aires Pharmaceuticals, Inc., priority 2007, published 2009).
Like-named read-outs stand apart in the source and are kept apart here.

What was measured:
in vivo = conditions: male, Sprague-Dawley, rat, plasma, 10 mg/kg; for half-life: T1/2, rat
[1] = Experimental: High concentrations permit reduced administration times (important for patient compliance), but suffer in that their associated osmolality and intense taste may mitigate this advantage. […] Nebulized solutions were inhaled to a shallow throat level and analyzed for: taste (saltiness), throat irritation, and sore throat. […] Sodium chloride is also considered in the art as helpful to alleviate cough. Therefore, this was also tested.
Summary. […] Finally, because viscosity and surface tension can be important contributors to optimal I-neb (Respironics, Inc., Murrysville, Pa.), Aerogen Aeroneb Go (Aerogen, Inc., Galway, Ireland) or other vibrating mesh nebulizer performance, potential formulations were screened in these devices to measure the effect of formulation on device output rate and aerosol particle size.

[2] = inhaled or intranasal, IT (dry powder, normalized to 10 mg/kg)
[3] = inhaled or intranasal, IT (liquid, 10 mg/kg)

## O=NO [sodium nitrite]
In vivo; [2]
  AUC: 4270 ng·h/mL
  Cmax: 172 µM
  half-life: 19 min
  Tmax: 5 min
In vivo; [3]
  AUC: 2820 ng·h/mL
  Cmax: 164 µM
  half-life: 10 min
  Tmax: 15 min
In vivo; iv, IV (10 mg/kg)
  AUC: 8120 ng·h/mL
  Cmax: 312 µM
  half-life: 20 min
  Tmax: 5 min
[1]; 75 mg/mL sodium nitrite, 1.56 mM citric acid, […] sodium saccharin, pH 5.41 admixed dosing solution
  level of nitric oxide produced: ~200 parts per billion
[1]; aqueous sodium nitrite titrated with citric acid
  nitric oxide produced and released: ~200 parts per billion
[1]; citric acid, pH ~5.5, 1:256 molar ratio ascorbic acid to nitrite
  nitric oxide relative to same formulation lacking ascorbic acid: ~4 fold
[1]; nitrite:ascorbic acid 256:1 mixture, Aeroneb Go Lab
  nitric oxide produced and released upon vibrating mesh nebulization: ~800 ppb
[1]; same dosing solution in the absence of citric acid
  level of nitric oxide produced: ~150 parts per billion
[1]; same formulation with ascorbic acid
  level of nitric oxide produced: ~800 parts per billion
